Measurements: patent publication US8153630B2, “Kinase inhibitors” (Miikana Therapeutics, Inc., priority 2004, dated 2012)

Legend:
[1] = target: T1, recombinant Aurora A (Homo sapiens, UniProt O14965); experiment: PanVera Z'-Lyte Aurora kinase assay; assay type: biochemical; details: Z'-Lyte Ser/Thr 1 peptide 2 μM, ATP 10 μM, 1 h
T1 construct: purchased Upstate, Lake Placid, N.Y
T1 sequence (O14965 1-403): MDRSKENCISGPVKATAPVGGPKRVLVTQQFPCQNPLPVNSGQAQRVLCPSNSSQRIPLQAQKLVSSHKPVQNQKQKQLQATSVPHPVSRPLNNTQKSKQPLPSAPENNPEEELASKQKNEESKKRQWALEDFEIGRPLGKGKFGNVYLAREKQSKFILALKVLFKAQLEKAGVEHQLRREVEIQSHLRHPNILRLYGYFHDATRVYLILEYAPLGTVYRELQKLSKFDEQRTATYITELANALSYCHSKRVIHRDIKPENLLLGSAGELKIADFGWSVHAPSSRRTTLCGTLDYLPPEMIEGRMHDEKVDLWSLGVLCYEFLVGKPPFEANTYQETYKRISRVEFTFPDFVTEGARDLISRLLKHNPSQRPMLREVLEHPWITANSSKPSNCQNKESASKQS
Protocol: Compounds 7-14 above were tested for their potency against recombinant Aurora A (Upstate, Lake Placid, N.Y.) using the PanVera Z'-Lyte kinase assay kit—Ser/Thr 1 peptide (Invitrogen, Carlsbad, Calif.). Assays were carried out in kinase assay buffer (50 mM HEPES, pH 7.5, 10 mM MgCl2, 5 mM EGTA, 0.05% Brij-35, 2 mM DTT). Test compounds were initially dissolved in DMSO at 100× the highest tested concentration, then serially diluted to 4× test concentrations in kinase assay buffer. Next, Aurora A (final concentration 200-500 ng/mL), Z′-Lyte Ser/Thr 1 peptide (final concentration 2 μM) and ATP (final concentration 10 μM) were added according to the manufacturer's instructions. Assays were carried out in half-area 96-well white polystyrene assay plates (Corning, Corning, N.Y.) in a final volume of 20 μL. The reaction was allowed to proceed for 1 h at room temperature in the dark, at which point the development reagent and stop reagent were added according to the manufacturer's instructions. Coumarin (Ex. 400 nm, Em. 465 nm) and fluorescein (Ex. 400 nm, Em. 565 nm) fluorescence values were measured on a SpectraFluor Plus plate reader (Tecan, Durham, N.C.). The emission ratio (coumarin/fluorescein) was determined and used to calculate the percent phosphorylation for each well. Wells containing substrate but no kinase and wells containing a phosphopeptide control were used to set 0% and 100% phosphorylation values, respectively. Typically 20-40% of the substrate was phosphorylated in wells without inhibitor. Dose-response curves of relative Aurora A activity vs. inhibitor concentration were plotted with Grafit (Erithacus Software, Horley, Surrey, UK) and used to calculate IC50 values.

[2] = tested on: HCT 116 Cells; experiment: Aurora kinase whole cell cytotoxicity assay: Sulforhodamine B; assay type: cell-based; details: Homo sapiens, HCT116, SRB staining, 96 hours incubation
Protocol: Human tumour-derived cell lines, HCT116 or MCF7 (ATCC) were plated in a 96 well plate in DMEM containing 10% fetal bovine serum and 2 mM L-glutamine at a density of 500 HCT116 cells or 1,000 MCF7 cells per well and incubated at 37° C., 5% CO2, for 24 hours prior to the addition of experimental compounds. Compounds were added using the dilution series indicated to duplicate plates and the cells were incubated in media plus compound for 96 hours. An additional plate was fixed in 10% TCA at the time of the addition of compound to provide a measurement of the cell population at time zero, the time of drug addition. Following the 96 hour incubation, cells were fixed in situ by gently aspirating off the culture media and then adding 50 ul of ice cold 10% TCA per well and incubation at 4° C. for 60 minutes. The plates were washed with tap water five times and allowed to air dry for 5 minute. 50 ul of a 0.4% (w/v) Sulforhodamine B solution in 1% (v/v) acetic acid was added per well and the cells were incubated for 30 minutes at room temperature. Following staining, plates were washed four times with 1% acetic acid to remove any unbound dye and then allowed to air dry for 5 minutes. The stain was solubilized with 100 ul of 10 mM Tris pH 10.5 per well and placed on an orbital rotator for 5 minutes. The absorbance was read at 570 nm. Percentage growth was calculated using the absorbance readings from the time zero plate (Tz) and the dilution series plate […] which included a column of cells grown in media without compound as a control (C) using the formulas: [(Ti−Tz)/(C−Tz)]×100 for concentrations for which Ti>/=Tz [(Ti−Tz)/Tz]×100 for concentrations for which Ti<Tz.
Three dose response parameters were calculated for each experimental agent. Growth inhibition of 50% (GI50) was calculated from [(Ti−Tz)/(C−Tz)]×100=50, which was the drug concentration resulting in a 50% reduction in the net protein increase (as measured by SRB staining) in control cells during the drug incubation. The drug concentration resulting in total growth inhibition (TGI) was calculated from Ti=Tz. The LC50 (concentration of drug resulting in a 50% reduction in the measured protein at the end of the drug treatment as compared to that at the beginning) indicating a net loss of cells following treatment ws calculated from [(Ti−Tz)/Tz]×100=−50. Values are calculated for each of these three parameters if the level of activity was reached; however, if the effect was not reached or was exceeded, the value for that parameter is expressed as greater or less than the maximum or minimum concentration tested.

Question: `Cc1cc(Nc2nc(Sc3ccc(NC(=O)C4CC4)cc3)nc(C(=O)OCc3ccccc3)c2N)n[nH]1` [Compound 66, Benzyl 2-(4-cyclopropanecarboxamidophenylsulfanyl)-5-amino-6-(5-methylpyrazol-3-ylamino)-4-pyrimidinecarboxylate] was tested. Which IC50 [1] did it give?
Answer: < 100 nM

Question: What about the GI50 [2] of the same compound?
Answer: 100 to 1000 nM

Question: For `CSCCNC(=O)c1nc(Sc2ccc(NC(=O)C3CC3)cc2)nc(Nc2cc(C)[nH]n2)c1N` [Compound 56, N-(2-Methylthioethyl) 2-(4-cyclopropanecarboxamidophenylsulfanyl)-5-amino-6-(5-methylpyrazol-3-ylamino)-4-pyrimidinecarboxamide], which IC50 [1] is on record?
Answer: < 100 nM

Question: What about the GI50 [2] of the same compound?
Answer: 100 to 1000 nM

Question: Which IC50 [1] does the source give for `COCCOC(=O)c1nc(Sc2ccc(NC(=O)C3CC3)cc2)nc(Nc2cc(C)[nH]n2)c1N` [Compound 40, 2-Methoxyethyl 2-(4-cyclopropanecarboxamidophenylsulfanyl)-5-amino-6-(5-methylpyrazol-3-ylamino)-4-pyrimidinecarboxylate] here?
Answer: < 100 nM

Question: And the GI50 [2]?
Answer: 100 to 1000 nM

Question: `Cc1cc(Nc2nc(Sc3ccc(NC(=O)C4CC4)cc3)nc(C(=O)OC3CCCCC3)c2N)n[nH]1` [Compound 42, Cyclohexyl 2-(4-cyclopropanecarboxamidophenylsulfanyl)-5-amino-6-(5-methylpyrazol-3-ylamino)-4-pyrimidinecarboxylate] was tested. Which IC50 [1] did it give?
Answer: < 100 nM

Question: What about the GI50 [2] of the same compound?
Answer: 100 to 1000 nM

Question: `Cc1cc(Nc2nc(Sc3ccc(NC(=O)C4CC4)cc3)nc(C(=O)NCC(F)(F)F)c2N)n[nH]1` [Compound 65, N-(2,2,2-Trifluoroethyl) 2-(4-cyclopropanecarboxamidophenylsulfanyl)-5-amino-6-(5-methylpyrazol-3-ylamino)-4-pyrimidinecarboxamide] was tested. Which IC50 [1] did it give?
Answer: < 100 nM

Question: And the GI50 [2]?
Answer: 100 to 1000 nM

Question: For `Cc1cc(Nc2nc(Sc3ccc(NC(=O)C4CC4)cc3)nc(C(=O)N3CCSCC3)c2N)n[nH]1` [Compound 45, Thiomorpholin-4-yl 2-(4-cyclopropanecarboxamidophenylsulfanyl)-5-amino-6-(5-methylpyrazol-3-ylamino)-4-pyrimidinecarboxamide], which IC50 [1] is on record?
Answer: < 100 nM

Question: And the GI50 [2]?
Answer: 1000 to 10000 nM

Question: Which results are given for `COCC(C)NC(=O)c1nc(Sc2ccc(NC(=O)C3CC3)cc2)nc(Nc2cc(C)[nH]n2)c1N` (stereo not shown) [Compound 61, N-(2-Methoxy-1-methylethyl) 2-(4-cyclopropanecarboxamidophenylsulfanyl)-5-amino-6-(5-methylpyrazol-3-ylamino)-4-pyrimidinecarboxamide]?
Answer: IC50 [1]: < 100 nM; GI50 [2]: 100 to 1000 nM

Question: Which IC50 [1] does the source give for `Cc1cc(Nc2nc(Sc3ccc(NC(=O)C4CC4)cc3)nc(C(=O)NCCN(C)C)c2N)n[nH]1` [Compound 12, N-[2-(N,N-dimethylamino)ethyl]-2-(4-cyclopropane-carboxamidophenylsulfanyl)-5-amino-6-(5-methylpyrazol-3-ylamino)-4-pyrimidine carboxamide] here?
Answer: < 100 nM

Question: What about the GI50 [2] of the same compound?
Answer: 1000 to 10000 nM

Question: How did the IC50 [1] turn out when `Cc1cc(Nc2nc(Sc3ccc(NC(=O)C4CC4)cc3)nc(C(=O)NC3CCN(C)CC3)c2N)n[nH]1` [Compound 64, N-(1-Methylpiperidin-4-yl) 2-(4-cyclopropanecarboxamidophenylsulfanyl)-5-amino-6-(5-methylpyrazol-3-ylamino)-4-pyrimidinecarboxamide] was run?
Answer: < 100 nM

Question: And the GI50 [2]?
Answer: 100 to 1000 nM

Question: How did the IC50 [1] turn out when `COCCNC(=O)c1nc(Sc2ccc(NC(=O)C3CC3)cc2)nc(Nc2cc(C)[nH]n2)c1N` [Compound 43, N-(2-Methoxyethyl) 2-(4-cyclopropanecarboxamidophenylsulfanyl)-5-amino-6-(5-methylpyrazol-3-ylamino)-4-pyrimidinecarboxamide] was run?
Answer: < 100 nM

Question: And the GI50 [2]?
Answer: 100 to 1000 nM

Question: Which results are given for `Cc1cc(Nc2nc(Sc3ccc(NC(=O)C4CC4)cc3)nc(C(=O)N3CCOCC3)c2N)n[nH]1` [Compound 44, Morpholin-4-yl 2-(4-cyclopropanecarboxamidophenylsulfanyl)-5-amino-6-(5-methylpyrazol-3-ylamino)-4-pyrimidinecarboxamide]?
Answer: IC50 [1]: < 100 nM; GI50 [2]: 1000 to 10000 nM

Question: How did the IC50 [1] turn out when `COC(=O)c1nc(Sc2ccc(NC(=O)C3CC3)cc2)nc(Nc2cc(C)[nH]n2)c1N` [Compound 7, Methyl 2-(4-cyclopropanecarboxamidophenylsulfanyl)-5-amino-6-(5-methylpyrazol-3-ylamino)-4-pyrimidinecarboxylate] was run?
Answer: < 100 nM

Question: And the GI50 [2]?
Answer: 100 to 1000 nM

Question: With `Cc1cc(Nc2nc(Sc3ccc(NC(=O)C4CC4)cc3)nc(C(=O)N3CCCCC3)c2N)n[nH]1` [Compound 53, Piperidin-1-yl 2-(4-cyclopropanecarboxamidophenylsulfanyl)-5-amino-6-(5-methylpyrazol-3-ylamino)-4-pyrimidinecarboxamide] as the compound, how does the IC50 [1] read?
Answer: < 100 nM

Question: And the GI50 [2]?
Answer: 100 to 1000 nM

Question: With `Cc1cc(Nc2nc(Sc3ccc(NC(=O)C4CC4)cc3)nc(C(=O)OCCN(C)C)c2N)n[nH]1` [Compound 46, 2-Dimethylaminoethyl 2-(4-cyclopropanecarboxamidophenylsulfanyl)-5-amino-6-(5-methylpyrazol-3-ylamino)-4-pyrimidinecarboxylate] as the compound, how does the IC50 [1] read?
Answer: < 100 nM

Question: And the GI50 [2]?
Answer: 100 to 1000 nM

Question: How did the IC50 [1] turn out when `CCOC(=O)c1nc([S+]([O-])c2ccc(NC(=O)C3CC3)cc2)nc(Nc2cc(C)[nH]n2)c1N` (stereo not shown) [Compound 14, ethyl 2-(4-cyclopropane-carboxamidophenylsulfinyl)-5-amino-6-(5-methylpyrazol-3-ylamino)-4-pyrimidinecarboxylate] was run?
Answer: < 100 nM

Question: For `CCOC(=O)c1nc(Nc2ccc(NC(C)=O)nc2)nc(Nc2cc(C)[nH]n2)c1N` [Compound 34, Ethyl 2-(6-acetylamido-3-pyridylamino)-5-amino-6-(5-methylpyrazol-3-ylamino)-4-pyrimidinecarboxylate], which IC50 [1] is on record?
Answer: 100 to 1000 nM

Question: Which IC50 [1] does the source give for `CCOC(=O)c1nc(S(=O)(=O)c2ccc(NC(=O)C3CC3)cc2)nc(Nc2cc(C)[nH]n2)c1N` [Compound 13, Ethyl 2-(4-cyclopropanecarboxamidophenylsulfonyl)-5-amino-6-(5-methylpyrazol-3-ylamino)-4-pyrimidinecarboxylate] here?
Answer: < 100 nM

Question: With `CNC(=O)c1nc(Sc2ccc(NC(=O)C3CC3)cc2)nc(Nc2cc(C)[nH]n2)c1N` [Compound 9, Methyl 2-(4-cyclopropanecarboxamidophenylsulfanyl)-5-amino-6-(5-methylpyrazol-3-ylamino)-4-pyrimidinecarboxamide] as the compound, how does the IC50 [1] read?
Answer: < 100 nM

Question: How did the IC50 [1] turn out when `Cc1cc(Nc2nc(Sc3ccc(NC(=O)C4CC4)cc3)nc(C(=O)Nc3ccccc3)c2N)n[nH]1` [Compound 60, N-Phenyl 2-(4-cyclopropanecarboxamidophenylsulfanyl)-5-amino-6-(5-methylpyrazol-3-ylamino)-4-pyrimidinecarboxamide] was run?
Answer: 100 to 1000 nM

Question: For `Cc1cc(Nc2nc(Sc3ccc(NC(=O)C4CC4)cc3)nc(C(=O)O)c2N)n[nH]1` [Compound 8, 2-(4-Cyclopropanecarboxamidophenylsulfanyl)-5-amino-6-(5-methylpyrazol-3-ylamino)-4-pyrimidinecarboxylic acid], which IC50 [1] is on record?
Answer: < 100 nM
